Structures are written as SMILES. pEC50, pIC50, pKi: −log10 of the molar value. Where a SMILES comes first, the peptide text is derived from it. [ ]: non-standard residue; d: D form. The star is where a group is joined. Phe(4-guanidino) = N=C(N)Nc1ccc(C[C@H](N)C(=O)O)cc1; Phe(4-CH2NH2) = NCc1ccc(C[C@H](N)C(=O)O)cc1; Phe(4-NH2) = Nc1ccc(C[C@H](N)C(=O)O)cc1; Bz = O=C(c1ccccc1)*

Data set [1] has as its system dengue virus type 2. Kind of data set: Inhibition of Dengue virus serotype 2 His-tagged NS2B-NS3 protease expressed in Escherichia coli BL21(DE3) at 50 uM using Abz-Nle-Lys-Arg-Arg-Ser-3-(NO2)Tyr as substrate preincubated for 15 mins followed by substrate addition measured for 15 mins by fluorescence assay relative to control.
For data set [2], the system named is West Nile virus. Kind of data set: Inhibition of West Nile virus His-tagged NS2B-NS3 protease expressed in Escherichia coli BL21(DE3) at 50 uM using Abz-Gly-Leu-Lys-Arg-Gly-Gly-3-(NO2)Tyr as substrate preincubated for 15 mins followed by substrate addition measured for 15 mins by fluorescence assay relative to control.
Data set [3] can be described thus: Inhibition of West Nile virus His-tagged NS2B-NS3 protease expressed in Escherichia coli BL21(DE3) using Abz-Gly-Leu-Lys-Arg-Gly-Gly-3-(NO2)Tyr as substrate preincubated for 15 mins followed by substrate addition measured for 15 mins by fluorescence assay.
Data set [4] in a line: Cytotoxicity against human HuH7 cells assessed as reduction in cell viability after 48 hrs by CellTiter-Glo assay. It is filed as toxicity, cell-based, Huh-7. In general terms: ATP-based viability assays read luminescence as a measure of living cells.
For data set [5], the system named is West Nile virus. Kind of data set: Antiviral activity against West Nile virus infected in African green monkey Vero E6 cells assessed as virus yield reduction after 3 days by crystal violet staining based plaque assay. The class given is functional, cell-based. Particulars: 72 h.
Data set [6] deals with dengue virus type 2. Kind of data set: Antiviral activity against Dengue virus serotype 2 infected in African green monkey Vero E6 cells assessed as virus yield reduction at 3.1 uM after 7 days by crystal violet staining based plaque assay relative to control. It is filed as functional. Details: scale not given: the % may be the effect or the level left.
Data set [7] in a line: Inhibition of Zika virus N-terminal His-tagged NS2B-NS3 protease expressed in Escherichia coli BL21 GOLD(DE3) using Bz-Nle-Lys-Lys-Arg-AMC as substrate preincubated for 10 mins followed by substrate addition by fluorophotometric method.
Data set [8] in a line: Inhibition of Dengue virus serotype 2 His-tagged NS2B-NS3 protease using Abz-Nle-Lys-Arg-Arg-Ser-3-(NO2)Tyr as substrate preincubated for 15 mins followed by substrate addition measured for 15 mins by fluorescence assay. Details: species or system dengue virus type 2.
Data set [9] has as its system West Nile virus. Kind of data set: Antiviral activity against West Nile virus infected in African green monkey Vero E6 cells assessed as virus yield reduction at 50 uM after 3 days by crystal violet staining based plaque assay relative to control. The class given is functional. Details: scale not given: the % may be the effect or the level left.
The test system of data set [10] is dengue virus type 2. Kind of data set: Antiviral activity against Dengue virus serotype 2 infected in African green monkey Vero E6 cells assessed as virus yield reduction after 7 days by crystal violet staining based plaque assay. It is filed as functional, cell-based. Particulars: 168 h.
The subject of data set [11] is dengue virus type 2. Kind of data set: Antiviral activity against Dengue virus serotype 2 infected in African green monkey Vero E6 cells assessed as virus yield reduction at 50 uM after 7 days by crystal violet staining based plaque assay relative to control. It is filed as functional. Further details: scale not given: the % may be the effect or the level left.

One may read the inhibition as the change of the read-out against control, counted positive when it falls. Regarding `N=C(N)NCCC[C@H](NC(=O)[C@@H](NC(=O)c1ccccc1)c1cccc(NC(=N)N)c1)C(N)=O`, the inhibition was found to be 9.8% in [1] and 22% in data set [2].
Usually pIC50 stands for the IC50 on a negative log10 scale, so that one unit is a factor of ten. In general, pKi refers to the Ki on a negative log10 scale, so that one unit is a factor of ten. What is called CC50 is the concentration that lowers cell viability or growth by half. A word on the pEC50: it is the EC50 on a negative log10 scale, so that one unit is a factor of ten. With `N=C(N)NCCC[C@H](NC(=O)[C@H](Cc1ccc(N)cc1)NC(=O)c1ccccc1)B(O)O`, the figures for the pIC50 in [3], in [7] and in [8] were 5.13, below 4.40 and 5.13, respectively. Also, the pKi is 5.22 in [3] and 5.38 in [8]. The CC50 at 48 h in data set [4] came to 10.1 µM. The pEC50 in [5] was 5.82. In addition, the Activity in [6] amounted to 44%.
For `N=C(N)NCCC[C@H](NC(=O)[C@H](Cc1ccc(NC(=N)N)cc1)NC(=O)c1ccccc1)C(N)=O` (Bz-[Phe(4-guanidino)]-Arg-NH2), the inhibition in [2] came out at 34%. Moreover, in [8], the pIC50 is 4.06 and the pKi is 4.54.
`CC(C)(C)c1ccc(C(=O)N[C@@H](Cc2ccc(NC(=N)N)cc2)C(=O)N[C@@H](CCCNC(=N)N)B(O)O)cc1`: the pIC50 in data set [3] was 6.68; in [7], 5.68; in [8] it was 6.96. In addition, the negative-log Ki (pKi) was 6.80 in data set [3] and 7.11 in data set [8]. The Activity in [9] was 30%. The CC50 at 48 h in [4] was above 100 µM. Also, in data set [10], the pEC50 was 4.72.
Take `NCCC[C@H](NC(=O)c1ccccc1)C(N)=O`: the inhibition in data set [1] was 2%; in [2], 18%.
In the same order, the values of `N=C(N)NCCC[C@H](NC(=O)c1ccccc1)C(N)=O` are 9.7% and 9.6%.
As for `NCCC[C@H](NC(=O)c1ccccc1)B(O)O`, the Activity was found to be 33% in data set [9] and 7.5% in data set [11]. The results for the inhibition in data set [1] and in data set [2] were 8.3% and 30%, respectively. For the same compound, the CC50 at 48 h in [4] is above 100 µM. In data set [7], this compound showed a negative logarithm of the IC50 (pIC50) below 4.30.
As to `N=C(N)NCCC[C@H](NC(=O)[C@H](Cc1cccc(NC(=N)N)c1)NC(=O)c1ccccc1)C(N)=O`, the inhibition in data set [2] was 33%. In data set [8], this compound gave a pIC50 of 3.68.
Take `N=C(N)NCCC[C@H](NC(=O)[C@H](Cc1ccc(NC(=N)N)cc1)NC(=O)c1ccccc1)B(O)O`: the pIC50 was 7.15 in data set [3], 6.08 in data set [7] and 7.44 in data set [8]. The figures for the negative-log Ki (pKi) in data set [3] and in [8] were 7.19 and 7.57, respectively. In data set [4], the CC50 at 48 h was above 100 µM. In addition, the pEC50 is 4.60 in data set [5] and 4.74 in data set [10].
`N=C(N)NCCC[C@H](NC(=O)c1ccccc1)B(O)O`: the Activity in [9] is 19%; in data set [11], 12%. For the same compound, the figures for the inhibition in [1] and in [2] were 51.9% and 18%, respectively. In addition, in data set [4], the CC50 at 48 h is above 100 µM. The same compound gave a pIC50 in [7] below 4.30.
Consider `N=C(N)NCCC[C@H](NC(=O)[C@H](Cc1ccc(CN)cc1)NC(=O)c1ccccc1)B(O)O`, for which the pIC50 in [3] is 6.96; in [7] it was 6.60; in [8] it was 7.18. The negative logarithm of the Ki (pKi) was 7.09 in data set [3], 7.40 in [7] and 7.29 in data set [8]. Further, the CC50 at 48 h in data set [4] is above 100 µM. Also, the pEC50 in data set [5] was 4.42; in data set [10], 4.52.
`CC(C)(C)c1ccc(C(=O)N[C@@H](Cc2ccc(NC(=N)N)cc2)C(=O)N[C@@H](CCCNC(=N)N)C(N)=O)cc1` returned an inhibition in [2] of 34%. The compound also gave a pIC50 in [8] of 3.84.
For the compound `N=C(N)NCCC[C@H](NC(=O)[C@@H](NC(=O)c1ccccc1)c1cccc(NC(=N)N)c1)B(O)O`, the pIC50 in data set [3] is 6.85; in data set [7] it was 5.92; in data set [8], 6.59. The pKi in data set [3] was 6.92; in data set [8], 6.66. Besides, the Activity in [9] was 47%; in [11], 24%. Also, the CC50 at 48 h in data set [4] is above 100 µM.
As for `N=C(N)NCCC[C@H](NC(=O)[C@H](Cc1ccc(N)cc1)NC(=O)c1ccccc1)C(N)=O` (Bz-[Phe(4-NH2)]-Arg-NH2), the inhibition is 5.2% in data set [1] and 13% in data set [2].
Take `N=C(N)NCCC[C@H](NC(=O)[C@H](Cc1ccc(CN)cc1)NC(=O)c1ccccc1)C(N)=O` (Bz-[Phe(4-CH2NH2)]-Arg-NH2): the values for the inhibition in [1] and in data set [2] were 6.6% and 20%, respectively.
Turning to `N=C(N)NCCC[C@H](NC(=O)[C@H](Cc1cccc(NC(=N)N)c1)NC(=O)c1ccccc1)B(O)O`, the negative logarithm of the IC50 (pIC50) was 6.51 in data set [3], 5.72 in data set [7] and 6.96 in [8]. Moreover, the negative-log Ki (pKi) is 6.52 in data set [3] and 7.04 in data set [8]. For the same compound, the Activity in data set [9] is on record as 38%. In addition, in data set [4], the CC50 at 48 h was at least 100 µM. Moreover, the pEC50 in data set [10] was 4.32.

(Values after ChEMBL document CHEMBL3877304, “Peptide-Boronic Acid Inhibitors of Flaviviral Proteases: Medicinal Chemistry and Structural Biology” (J Med Chem, 2017).)
